The values below come from PMC8466781, “Evaluation of Synthetic 2,4-Disubstituted-benzo[g]quinoxaline Derivatives as Potential Anticancer Agents” (Pharmaceuticals, 2021).

In series [1] the test system is breast MCF-7 cancer cell line. The experiment in a line: MTT cytotoxicity assay against breast MCF-7 cancer cell line. The series is classed as cell-based. The note with it: Homo sapiens, MCF7, 24 h treatment, mean ± SD, n = 3 experiments, read-out: IC50 (μM) MCF-7, in vitro cytotoxic activity. As for the experimental part: The effect of the prepared benzo[g]quinoxaline derivatives 2–9 on the viability of breast MCF-7 cancer cell line was studied using MTT assay. The cytotoxicity was assessed using Dox as positive reference drug.
Antitumor activity of the newly prepared benzo[g]quinoxaline derivatives 2–9 were carried out against breast MCF-7 cancer cell line using MTT assay method. Cells at density of 1 × 10^4 were seeded in 96-well plate at 37 °C for 48 h under 5% CO2. After incubation, the cells were treated with different concentration of the prepared molecules and incubated for 24 h. MTT dye was added at the end of 24 h of drug treatment and incubated for 4 h at 37 °C. 100 µL of dimethyl sulphoxide was added to each well to dissolve the purple formazan formed. The color intensity of the formazan product, which represents the growth condition of the cells, was quantified using an ELISA plate reader at 570 nm. The experimental conditions were carried out with at least three replicates and the experiments were repeated at least three times.
In general terms: Tetrazolium dyes change colour on reduction, which living cells bring about.

For series [2], the system named is MCF-7 cells. Description: Annexin V-FITC/PI apoptosis staining assay (flow cytometry). The class given is cell-based. The note with it: MCF-7, compound at IC50 concentration, 48 h. As for the experimental part: Apoptosis staining assay was performed to detect the effect of compound 3 on the percentage of early and late apoptosis in the breast MCF-7 cancer cell line. […] Therefore, compound 3 can be considered an apoptosis inducer in the breast MCF-7 cell line.
Apoptosis in MCF-7 cells was investigated using fluorescent Annexin V-FITC/PI detection kit by flow cytometry assay. Briefly, MCF-7 cells (2 × 10^5) after incubation for 12 h. Cells were treated with compound 3 at its IC50 concentration for 48 h, then the cells were harvested and stained with Annexin V-FITC/PI dye for 15 min in the dark at 37 °C. Flow cytometry analyses were performed using FACS Calibur flow cytometer (Becton and Dickinson, Heidelberg, Germany).
Figure 5 (A) Graphical representation of the effect of compound 3 on induction of apoptosis in MCF-7 cell line. (B) Effect of compound 3 on induction of apoptosis in MCF-7 cell line. Data are expressed as the mean ± SD (n = 3 experiments) and statistical comparisons were carried out using one-way analysis of variance (ANOVA) followed by Tukey’s multiple comparison test (** p < 0.01, and *** p < 0.001). […] The Comp 3 values are given in the order upper left, upper right, lower right, with no measure name. / The Control MCF-7 plot prints 1.51%, 0.13% and 0.77%. These are left out because the untreated control is not a substance.
(Flow cytometry measures light scatter and fluorescence of single cells or particles in a stream.)

The subject of the next series is Bcl2. The experiment in a line: ELISA measurement of Bcl2 level in MCF-7 cells. The note with it: MCF-7 cells treated at IC50 (2.89 µM). The series is classed as cell-based. As for the experimental part:
(§1) In order to investigate the molecular pathway involved in apoptosis, compound 3 was screened for its ability to activate pro-apoptotic protein; Bax and downregulate anti-apoptotic protein; Bcl2 [31]. The MCF-7 cancer cell line was treated with compound 3 at its IC50 value (µM) and the level of expression of proteins involved in apoptosis was quantized using ELISA assay. […] Therefore, it can be concluded that compound 3 can induce the intrinsic pathway of apoptosis by activation of Bax and downregulation of Bcl2.
(§2) The levels of the apoptotic marker Bax, Bcl-2, and Fas/Fas-l were assessed using ELISA kit. The procedure of the used kits was completed according to the manufacturer’s instructions. Briefly, cell lysates were prepared from control and MCF-7 cells (2.5 × 10^5) treated with IC50 concentration of compound 3. Then, equal amounts of cell lysates were loaded then probed with specific antibodies. The samples were measured at 450 nm in ROBONEK P2000 ELISA reader. All experiments were performed in duplicate.
(§3) Figure 6 Effect of compound 3 on apoptosis related proteins, Bax, Bcl2, and Fas/Fas-L in MCF-7 cells. […] Data was expressed as mean ± SD (n = 3 experiments) and statistical comparisons were carried out using one-way analysis of variance (ANOVA) followed by Tukey’s multiple comparison test (*** p < 0.001).
On the technique in general: ELISA stands for enzyme-linked immunosorbent assay.

For series [3], the system named is MCF-7 cells. The experiment in a line: Cell cycle analysis by DNA flow cytometry (PI staining). The note with it: MCF-7, compound at IC50 (2.89 µM), 48 h; untreated control 2.41%. The class given is cell-based. As for the experimental part:
Compound 3 was tested at its IC50 concentration dose value.
MCF-7 cells (2 × 10^5/well) were harvested and washed twice in PBS. After that, cells were incubated at 37 °C and 5% CO2. The medium was replaced with (DMSO 1% v/v) containing the tested compound, then incubated for 48 h, washed twice in PBS, fixed with 70% ethanol, rinsed again with PBS, and then stained with DNA fluorochrome PI for 15 min at 37 °C. DNA content was analyzed by flow cytometry on a FACS Calibur flow cytometer (Becton and Dickinson, Heidelberg, Germany).
Figure 4 (A) Graphical representation of percentages of cells in pre-G1, G1, G2/M, and S cell cycle phase in MCF-7 cells treated with compound 3 (2.89 µM) for 48 h. (B) Effect of compound 3 (2.89 µM) on cell cycle distribution in MCF-7 cells for 48 h and analyzed by flow cytometry after staining with DNA fluorochrome propidium iodide; most of the compound 3 treated cells were in pre-G1 phase (apoptosis). Data are expressed as the mean ± SD (n = 3 experiments) and statistical comparisons were carried out using one-way analysis of variance (ANOVA) followed by Tukey’s multiple comparison test (*** p < 0.001). ***-Highly significant. […]

The next series concerns Bax. Description: ELISA measurement of Bax level in MCF-7 cells. The series is classed as cell-based. Conditions: MCF-7 cells treated at IC50 (2.89 µM). As for the experimental part: as §1, §2, §3
The target in another series is T1, topoisomerase IIβ (Homo sapiens, UniProt Q02880).
T1 construct: purchased MBS942146
Description: Topoisomerase IIβ enzyme inhibition assay (Human DNA topo IIβ ELISA Kit # MBS942146). The class given is biochemical. The method, then: To obtain a further insight into the mechanism of cell proliferation inhibition activity, benzo[g]quinoxaline molecule 3 was investigated for topoisomerase IIβ (topo IIβ) inhibitory activity using the Human DNA topo IIβ ELISA Kit # MBS942146.
Compound 3 and Dox were evaluated against topoisomerase IIβ for their inhibitory concentration (µM) using four doses concentration according to manufacturer’s instructions.
Figure 3 Graphical representation for comparison of topo IIβ IC50 of compound 3 and Dox; topo II was performed using four doses protocol for compound 3 and Dox, and the concentration that induced 50% maximum inhibition of topo II was determined from sigmoidal dose–response. Data are expressed as the mean ± SD (n = 3 experiments) and statistical comparisons were carried out using one-way analysis of variance (ANOVA) followed by Tukey’s multiple comparison test (** p < 0.01). **-Significant.

Usually IC50 stands for the concentration that inhibits the measured activity by half. The term melting point denotes the temperature, or range, at which the solid turns liquid.

T1 sequence (Q02880 whole entry): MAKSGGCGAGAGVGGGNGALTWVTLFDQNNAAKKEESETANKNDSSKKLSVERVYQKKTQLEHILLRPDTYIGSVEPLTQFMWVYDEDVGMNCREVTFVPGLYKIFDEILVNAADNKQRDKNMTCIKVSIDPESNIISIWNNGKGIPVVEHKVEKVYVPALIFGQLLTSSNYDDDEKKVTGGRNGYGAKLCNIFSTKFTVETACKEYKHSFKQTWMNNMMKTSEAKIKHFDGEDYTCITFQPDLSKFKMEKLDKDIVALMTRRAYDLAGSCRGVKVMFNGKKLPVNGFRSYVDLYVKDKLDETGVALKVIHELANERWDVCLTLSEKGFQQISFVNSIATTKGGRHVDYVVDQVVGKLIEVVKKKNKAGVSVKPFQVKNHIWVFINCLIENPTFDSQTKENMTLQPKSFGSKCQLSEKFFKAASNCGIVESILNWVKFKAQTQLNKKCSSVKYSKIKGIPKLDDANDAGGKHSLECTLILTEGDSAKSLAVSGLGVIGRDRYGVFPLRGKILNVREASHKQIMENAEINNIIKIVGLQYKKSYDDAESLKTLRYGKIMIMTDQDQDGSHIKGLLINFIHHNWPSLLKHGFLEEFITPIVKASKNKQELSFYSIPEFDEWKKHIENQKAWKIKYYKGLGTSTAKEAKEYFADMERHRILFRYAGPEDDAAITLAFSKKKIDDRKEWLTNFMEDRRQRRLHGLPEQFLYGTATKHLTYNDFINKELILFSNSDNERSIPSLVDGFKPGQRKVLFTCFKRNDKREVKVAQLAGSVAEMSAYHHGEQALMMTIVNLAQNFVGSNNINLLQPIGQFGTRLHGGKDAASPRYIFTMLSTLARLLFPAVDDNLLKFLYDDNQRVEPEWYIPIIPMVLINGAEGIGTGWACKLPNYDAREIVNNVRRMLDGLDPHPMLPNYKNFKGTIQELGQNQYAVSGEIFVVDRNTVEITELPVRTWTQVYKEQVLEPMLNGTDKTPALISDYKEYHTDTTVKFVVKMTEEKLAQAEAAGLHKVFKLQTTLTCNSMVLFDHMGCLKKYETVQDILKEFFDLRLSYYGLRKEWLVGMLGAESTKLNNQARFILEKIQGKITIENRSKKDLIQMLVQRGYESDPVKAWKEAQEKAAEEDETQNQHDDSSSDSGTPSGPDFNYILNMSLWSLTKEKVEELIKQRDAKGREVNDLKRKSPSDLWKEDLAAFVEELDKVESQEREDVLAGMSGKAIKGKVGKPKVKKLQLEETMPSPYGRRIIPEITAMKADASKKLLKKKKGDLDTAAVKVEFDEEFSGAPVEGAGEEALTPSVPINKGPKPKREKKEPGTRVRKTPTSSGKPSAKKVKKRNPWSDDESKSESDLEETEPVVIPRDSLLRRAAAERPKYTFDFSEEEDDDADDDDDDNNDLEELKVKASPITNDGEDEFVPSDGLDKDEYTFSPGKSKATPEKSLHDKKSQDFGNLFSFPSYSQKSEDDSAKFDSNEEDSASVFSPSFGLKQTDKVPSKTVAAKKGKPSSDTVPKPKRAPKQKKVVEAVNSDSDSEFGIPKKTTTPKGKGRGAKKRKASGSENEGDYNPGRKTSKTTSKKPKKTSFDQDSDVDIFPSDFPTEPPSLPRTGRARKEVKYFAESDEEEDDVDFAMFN

Consider `Clc1ccc(C2=Nc3cc4ccccc4cc3NC2)cc1` [Compound 2, 3-(4-Chlorophenyl)-1,2-dihydrobenzo[g]quinoxaline], for which the melting point was in the range of 195 to 197 °C. Further, the concentration for half-maximal inhibition (IC50) in series [1] is 17.2 ± 0.69 µM.
The compound `Clc1ccc(-c2cnc3cc4ccccc4cc3n2)cc1` [Compound 3, 2-(4-Chlorophenyl)benzo[g]quinoxaline] returned a melting point of 168 to 170 °C. Moreover, in the series on MCF-7 cells [2] (untreated control 0.13%), the “apoptosis percentage at late stage (upper right quadrant)” value was 21.38%. Moreover, the “apoptosis percentage at the early stage (lower right quadrant)” value with MCF-7 cells [2] (untreated control 0.77%) was found to be 1.59%. Also, the IC50 in series [1] worked out at 2.89 ± 0.11 µM. Also, the “downregulation of Bcl2 compared with untreated control” value in the series on Bcl2 is listed as 4.35 fold. Moreover, the “percentage of cells at the pre-G1 phase” value in the series with MCF-7 cells [3] is recorded as 38.24%. Further, in the series on Bax, the “increase of Bax expression compared with untreated control” value is on record as 3.89 fold.
Take `CC(=O)N1C=C(c2ccc(Cl)cc2)Nc2cc3ccccc3cc21` [Compound 4, 1-(3-(4-Chlorophenyl)benzo[g]quinoxalin-1(4H)-yl)ethanone]: the melting point lay within 171 to 173 °C. Moreover, in series [1], the IC50 stood at 16.2 ± 0.58 µM.
The compound `CCOC(=O)C(C#N)=C(c1ccc(O)c(OC)c1)N1C=C(c2ccc(Cl)cc2)Nc2cc3ccccc3cc21` [Compound 5, Ethyl 3-(3-(4-Chlorophenyl)benzo[g]quinoxalin-1(4H)-yl)-2-cyano-3-(4-hydroxy-3-methoxyphenyl)acrylate] showed a melting point of 146 to 148 °C. Also, in series [1], the IC50 worked out at 32.1 ± 1.11 µM.
`Nc1c(NCC(=O)c2ccc(Cl)cc2)c(Br)c2ccccc2c1Br` [Compound 8, 2-(3-Amino-1,4-dibromonaphthalen-2-ylamino)-1-(4-chlorophenyl)ethanone] returned a melting point of 225 to 227 °C.
On to `CC(=O)N1CC(c2ccc(Cl)cc2)=Nc2c1c(Br)c1ccccc1c2Br` [Compound 9, 1-(5,10-Dibromo-3-(4-chlorophenyl)benzo[g]quinoxalin-1(2H)-yl)ethanone], for which the melting point was 205 to 207 °C. In addition, the IC50 in series [1] stood at 8.84 ± 0.36 µM.
`COc1cccc2c1C(=O)c1c(O)c3c(c(O)c1C2=O)C[C@@](O)(C(=O)CO)C[C@@H]3O[C@H]1C[C@H](N)[C@H](O)[C@H](C)O1` [Dox, Doxorubicin, reference compound]: the IC50 in series [1] was found to be 2.01 ± 0.01 µM; on topoisomerase IIβ, 3.31 µM.
